# Reference: patent publication US5849776A, “Medicaments based on metronidazole or on a synergic mixture of metronidazole and clindamycin” (Centre International de Recherches Dermatologiques Galderma …, priority 1994, dated 1998)
# “Also recorded” adds a separate entry of the source.
# Tests used:
# [1] = test system: oedema of the ear of the mouse induced by topical application of arachidonic acid; assay: oedema of the ear of the mouse induced by topical application of arachidonic acid (in vivo topical anti-inflammatory activity); conditions: for % Inhibition of the oedema After 1 h: 1 h after arachidonic acid; for % Inhibition of the oedema After 1 h / % Inhibition of the oedema After 2 h: each active 2% in acetone solution, topical, 25 μl twice daily for 4 days plus last application 2 h before arachidonic acid, vs other ear pretreated with acetone only; for % Inhibition of the oedema After 2 h: 2 h after arachidonic acid; for anti-inflammatory activity (in words): in vivo topical application
# Excerpt: The test used to evaluate this activity is that of oedema of the ear of the mouse induced by topical application of arachidonic acid. According to this model, the topical application of arachidonic acid to the ear causes an inflammation which is characterized by the rapid development of an oedema, the latter becoming maximum at the end of one hour after application. The oedematous response is then quantified by measuring the thickness of the ear.
# The exact operating protocol is the following: the mice are first of all pretreated with the active product(s) to be evaluated, two topical applications per day (2×25 μl; one application in the morning and the other in the evening) being carried out on one of their ears of an acetone solution containing, at a given concentration, this or these active principle(s); this pretreatment is carried out for four consecutive days. Then, on the fifth day, the mice receive a last application (25 μl) of the solution containing the active principle(s) to be tested, which takes place two hours before the application to the ear thus pretreated of the arachidonic acid intended to produce the oedema (25 μl of a THF/methanol solution containing 4 weight % of arachidonic acid). The oedematous response is then quantified by measuring the thickness of the ear 1 hour and 2 hours after application of the arachidonic acid solution.
# [2] = test system: oedema of the ear of the mouse induced by topical application of arachidonic acid; conditions: conventional agents, general statement on the model; cited from earlier work
Structure (SMILES),% Inhibition of the oedema After 1 h [1],% Inhibition of the oedema After 2 h [1],anti-inflammatory activity (in words) [1],inhibition in this model (in words) [2]
CCC[C@@H]1C[C@@H](C(=O)N[C@@H]([C@H]2O[C@H](SC)[C@H](O)[C@@H](O)[C@H]2O)[C@H](C)Cl)N(C)C1 [Clindamycin],(ni),(ni),"does not, by itself, have any significant activity; also recorded: no, or substantially no, anti-inflammatory activity",
"Cc1ncc([N+](=O)[O-])n1CCO [Metronidazole, 2-methyl-5-nitroimidazole-1-ethanol]",20%,36%,good anti-inflammatory activity after in vivo topical application,
COc1ccc2c(c1)c(CC(=O)O)c(C)n2C(=O)c1ccc(Cl)cc1 [indomethacin],,,,good inhibitors in this model
COc1ccc2cc([C@H](C)C(=O)O)ccc2c1 [naproxen],,,,good inhibitors in this model
CCCCC1C(=O)N(c2ccccc2)N(c2ccccc2)C1=O [phenylbutazone],,,,good inhibitors in this model
